# Measurements: publication PMC3867539 (Angewandte Chemie (International ed. in English), 2013)
# Legend:
# [1] = target: CYP71A13 (Arabidopsis thaliana, UniProt O49342); conditions: estimate only, not a measured constant; Cys as thiol donor
# [2] = target: CYP71A12 (Arabidopsis thaliana, UniProt O49340); conditions: estimate only, not a measured constant; Cys as thiol donor
# CYP71A12, sequence (O49340 whole entry): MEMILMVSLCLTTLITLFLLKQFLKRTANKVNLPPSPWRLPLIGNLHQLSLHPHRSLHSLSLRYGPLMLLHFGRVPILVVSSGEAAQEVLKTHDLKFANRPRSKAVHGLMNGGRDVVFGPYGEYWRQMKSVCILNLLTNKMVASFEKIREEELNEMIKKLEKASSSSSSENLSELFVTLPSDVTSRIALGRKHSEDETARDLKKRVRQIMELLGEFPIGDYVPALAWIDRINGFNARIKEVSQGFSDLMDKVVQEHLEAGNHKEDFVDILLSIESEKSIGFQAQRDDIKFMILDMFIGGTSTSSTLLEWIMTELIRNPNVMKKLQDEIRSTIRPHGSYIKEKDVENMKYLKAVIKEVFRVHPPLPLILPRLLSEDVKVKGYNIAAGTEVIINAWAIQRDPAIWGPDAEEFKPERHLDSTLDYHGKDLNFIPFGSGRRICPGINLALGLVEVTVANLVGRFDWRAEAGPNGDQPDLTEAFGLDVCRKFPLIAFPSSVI
# CYP71A13, sequence (O49342 whole entry): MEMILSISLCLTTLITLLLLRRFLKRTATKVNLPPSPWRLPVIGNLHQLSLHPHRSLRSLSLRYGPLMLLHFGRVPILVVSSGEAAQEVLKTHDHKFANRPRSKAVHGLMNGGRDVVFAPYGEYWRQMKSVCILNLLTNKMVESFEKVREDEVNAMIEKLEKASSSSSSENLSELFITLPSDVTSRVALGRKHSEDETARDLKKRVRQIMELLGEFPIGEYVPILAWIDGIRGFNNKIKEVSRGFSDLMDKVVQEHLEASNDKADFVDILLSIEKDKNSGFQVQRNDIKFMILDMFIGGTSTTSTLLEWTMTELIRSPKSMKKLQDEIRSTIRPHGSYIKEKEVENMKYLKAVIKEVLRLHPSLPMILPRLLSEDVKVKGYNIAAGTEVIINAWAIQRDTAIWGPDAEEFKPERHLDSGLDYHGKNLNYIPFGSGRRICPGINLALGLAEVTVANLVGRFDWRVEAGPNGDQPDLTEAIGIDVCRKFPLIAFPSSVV
smiles,measurement,setting,value
N#CCc1c[nH]c2ccccc12 [IAN],Km,[1],> 100 µM
same,Km,[2],> 100 µM
